Assay results reported in patent US20070248543A1 (ZGene A/S, priority 2004, published 2007).
“And” between values parts separate entries of the source, which are not always exact repeats. Equal entries are not always repeated. Where two headings read alike, the source gives them in different places.

How the values were obtained:
[1] = test system: GgdCK1; assay: Steady state kinetics of purified recombinant GgdCK1; format: biochemical, Gallus gallus
Description: (§1) Purification of the Recombinant Enzymes. Transformants (KY895 cells transfected with PZG469 (GgcCK1) and PZG657 (GgdCK2)) were grown in LB medium containing […] ampicillin to A600 0.5-0.6, and the expression was induced with […] IPTG for 4 h at 25° C. […] The cells were homogenized using a French Press, subjected to centrifugation at 12,000×g for 30 minutes (4° C.), filtered through a […] Whatman glass microfiber filter and a […] cellulose acetate filter, and loaded onto the column (2 ml column packed with Glutathione-Sepharose 4 FF, Pharmacia) equilibrated in binding buffer A. Unbound material was removed by washing with 10 column volumes of buffer A. Subsequently the column was washed with 5 ml buffer A containing 10 mM ATP/MgCl2, and incubated for 1 h at room temperature and then 30 min at 4° C. to remove strongly bound contaminating proteins. Afterwards the column was washed again with 10 ml of buffer A and 2 ml of thrombin (50 U/ml) solution were applied on the column. The column was gently shaken overnight at 4° C. to cleave the recombinant protein from the GST-tag. Pure protein was eluted from the column in buffer A. Uncleaved fusion protein was eluted with buffer B (50 mM Tris-HCl pH 8, 10% glycerol, 0,1 % Triton X-100, 10 mM gluthatione reduced). Before storage of enzyme-containing fractions at −80° C., glycerol, Triton X-100, and dithiothreitol were added to 8%, 1% and 1 mM, respectively. Proteins were analyzed on Agilent 2100 Bioanalyzer using Protein Assay Chips.
Enzyme Assays. Bacteria or cell lines were grown as described, harvested and stored at −80° C. until activity testing. Cells were submitted to brief sonication in extraction buffer (50 mM Tris/HCl pH 7.5, 1 mM DTT, 10% (v/v) glycerol, 1% (v/v) Triton X-100, protease inhibitor cocktail Complete™ from Roche Diagnostics). Deoxyribonucleoside kinase activities were determined by initial velocity measurements based on four time samples by the DE-81 filter paper assay using tritium-labelled nucleoside substrates. App. 20 μg extracts were used in the assays. […] One unit of deoxyribonucleoside kinase activity is defined as 1 μmol of the corresponding monophosphate formed per minute. The obtained data were fitted to the Michaelis-Menten equation v=Vmax·[S]/(Km+[S]).

[2] = molecular target: HsdCK (Homo sapiens, UniProt P27707); settings: cited from earlier work; for Kcat / Vmax: literature data
Sequence of HsdCK (P27707 whole entry): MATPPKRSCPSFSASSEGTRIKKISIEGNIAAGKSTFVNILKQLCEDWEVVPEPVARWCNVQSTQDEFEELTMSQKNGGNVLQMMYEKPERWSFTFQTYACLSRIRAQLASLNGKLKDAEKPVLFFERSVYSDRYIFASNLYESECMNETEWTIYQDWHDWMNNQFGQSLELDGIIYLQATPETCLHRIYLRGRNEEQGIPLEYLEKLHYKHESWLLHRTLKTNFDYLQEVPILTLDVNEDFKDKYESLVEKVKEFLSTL

[3] = test system: MCF-7 (breast cancer cell line); assay: Cell proliferation assay (XTT cytotoxicity) of retrovirus-transduced MCF-7 cells; format: cell-based; settings: Homo sapiens, MCF7, read-out: IC50 value of ara-G, MCF-7 parental cell line
Description: HE 293 T packaging cells (ATCC CRL-11268) were cultured at 37° C. in OPTIMEM 1 medium (Life Technologies, Inc.) The constructed pLCXSN plasmid vector was transfected into the packaging cells using LipofectAMINE PLUS (Life Technologies, Inc.) according to the protocol provided by the supplier. The medium from the transfected cells was collected 48 hours after transfection, filtered through a 0.45 µm filter, pelleted by ultracentrifugation (50.000×g, 90 minutes at 4° C.) and dissolved in DMEM (Cambrex, Blo Whittaker Cat. No. 12-741-F).
The virus containing medium was subsequently used to transduce the cancer cell lines with a MOI of 5. […]
Cells were plated at densities range of 1.500-3.500 cells/well in 96-well plates coated with Poly-L-lysine (Sigma Cat. No. P6282) Gemcitabine (obtained from Orifarm A/S—DK) was added after 24 hours of incubation at 37° C., 5% CO2, and the medium containing the nucleoside analog. […] The IC50 value of the investigated drug/compound was calculated as the mean of these experiments using SigmaPlot® (SPSS Science, Dyrberg Trading—DK).
The sensitivity of the untransduced cells, and of the cells transduced with either the retroviral vector alone ore the vector containing chicken kinases for Gemcitabine and Ara-G was determined.

[4] = molecular target: T1, human dGK (Homo sapiens, UniProt Q16854); settings: Zhu et al. 1998; cited from earlier work
T1 sequence (Q16854 40-277): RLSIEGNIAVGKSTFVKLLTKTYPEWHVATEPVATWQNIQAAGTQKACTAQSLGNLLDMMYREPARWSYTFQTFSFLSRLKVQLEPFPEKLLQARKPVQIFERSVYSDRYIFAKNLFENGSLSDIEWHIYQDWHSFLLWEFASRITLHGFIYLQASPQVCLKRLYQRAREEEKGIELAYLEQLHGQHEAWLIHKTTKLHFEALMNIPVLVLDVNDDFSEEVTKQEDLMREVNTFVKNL

[5] = molecular target: GgdCK2 (Gallus gallus, UniProt Q5ZJM7); assay: Steady state kinetics of purified recombinant GgdCK2
Sequence of GgdCK2 (Q5ZJM7 whole entry): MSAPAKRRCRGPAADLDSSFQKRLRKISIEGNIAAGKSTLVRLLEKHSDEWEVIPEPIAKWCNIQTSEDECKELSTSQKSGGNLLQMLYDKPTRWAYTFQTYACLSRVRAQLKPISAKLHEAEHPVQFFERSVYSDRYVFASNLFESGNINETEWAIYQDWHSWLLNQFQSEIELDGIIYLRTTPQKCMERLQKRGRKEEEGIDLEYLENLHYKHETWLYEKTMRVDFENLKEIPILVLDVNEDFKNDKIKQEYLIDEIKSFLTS
Description: as §1
Enzyme Assays. Bacteria or cell lines were grown as described, harvested and stored at −80° C. until activity testing. Cells were submitted to brief sonication in extraction buffer (50 mM Tris/HCl pH 7.5, 1 mM DTT, 10% (v/v) glycerol, 1% (v/v) Triton X-100, protease inhibitor cocktail Complete™ from Roche Diagnostics). Deoxyribonucleoside kinase activities were determined by initial velocity measurements based on four time samples by the DE-81 filter paper assay using tritium-labelled nucleoside substrates. App. 20 μg extracts were used in the assays. […]

[6] = test system: deoxyribonucleoside kinases in MCF-7 cell crude extract; assay: Deoxyribonucleoside kinase activity in crude extracts of MCF-7 cells; format: biochemical, human; settings: substrate at 200 μM; triplicates, mean with standard deviation
Description: Cells were submitted to brief sonication in extraction buffer (50 mM Tris/HCl pH 7.5, 1 mM DTT, 10% (v/v) glycerol, 1% (v/v) Triton X-100, protease inhibitor cocktail (CompleteTM from Roche Diagnostics). […] App. 20 μg extracts were used in the assays. The assay was done as described by Munch-Petersen et al. [Munch-Petersen, B., Knecht, W., Lenz, […]: Functional expression of a multisubstrate deoxyribonucleoside kinase from Drosophila melanogaster and its C-terminal deletion mutants; J.Biol.Chem. 2000 275 6673-6679].

[7] = test system: deoxyribonucleoside kinases in DT 40 chicken cell line crude extract; assay: Deoxyribonucleoside kinase activity in crude extracts of DT 40 cells (DE-81 filter paper assay); format: biochemical; settings: substrate at 200 μM; triplicates, mean with standard deviation
Description: Deoxribonucleoside kinase activities in DT 40 chicken cell line DT 40 cells were grown in RPMI-1640 medium (Gibco) supplemented with 10% foetal calf serum, 1% chicken serum, 2 mM L-glutamine, 10 uM mercaptoethanol and penicillin-streptomycin mixture […], harvested and stored at −80° C. until activity testing. Cells were submitted to brief sonication in extraction buffer (50 mM Tris/HCl pH 7.5, 1 mM DTT, 10% (v/v) glycerol, 1% (v/v) Triton X-100, protease inhibitor cocktail (Complete™ from Roche Diagnostics). Deoxyribonucleoside kinase activities were determined in the DT 40 extracts by initial velocity measurements based on four time samples by the DE-81 filter paper assay using tritium-labelled nucleoside substrates. App. 20 μg extracts were used in the assays. The assay was done as described by Munch-Petersen et al. [Munch-Petersen, B., Knecht, W., Lenz, C., Sondergaard, L. & Piskur, J: Functional expression of a multisubstrate deoxyribonucleoside kinase from Drosophila melanogaster and its C-terminal deletion mutants; J.Biol.Chem. 2000 275 6673-6679].

[8] = test system: deoxyribonucleoside kinase expressed in E. coli TOP10 extracts; assay: Deoxyribonucleoside kinase activity in extracts of transformed TOP10 cells; format: biochemical; settings: approximate
[9] = data from Bohman 1988 and Habteyesus 1991, read-out: Km

Compound: Nc1nc(Cl)nc2c1ncn2[C@H]1C[C@H](O)[C@@H](CO)O1 [CdA, 2-chloro-2′-deoxyadenosine]
- Kcat [1]: 0.64 s⁻¹
- Km [1]: 3.3 ± 0.4 µM
- Vmax [1]: 1273 ± 38 nm/min/mg

Compound: Nc1nc(F)nc2c1ncn2[C@@H]1O[C@H](CO)[C@@H](O)[C@@H]1O [F-araA, 2-Fluoroadenine 9-beta-D-Arabinofuranoside]
- Km ([2]; data from Bohman 1988 and Habteyesus 1991): 200 µM

Compound: Nc1ccn([C@@H]2O[C@H](CO)[C@@H](O)C2(F)F)c(=O)n1 [Gemcitabine, 2′,2′-difluorodeoxycytidine]
- Km [2, 9]: 60 µM
- Kcat [2]: 0.05 s⁻¹
- Vmax [2]: 100 nm/min/mg
- Kcat [1]: 1.37 s⁻¹
- Km [1]: 6.3 ± 0.5 µM
- Vmax [1]: 2712 ± 357 nm/min/mg

Compound: Nc1nc2c(ncn2[C@@H]2O[C@H](CO)[C@@H](O)[C@@H]2O)c(=O)[nH]1 [ara-G, 9-beta-D-arabinofuranosylguanine]
- IC50 [3]: 1580 ± 158 µM
- Km [4]: 8 µM
- relative phosphorylation higher by recombinant human dGK than by recombinant human dCK [4]: 76 times

Compound: Nc1ccn([C@@H]2O[C@H](CO)[C@@H](O)[C@@H]2O)c(=O)n1 [araC, cytidine-arabinoside]
- Kcat [5]: 0.34 s⁻¹
- Km [5]: 1470 ± 664 µM
- Vmax [5]: 649 ± 267 nm/min/mg
- Kcat [1]: 0.44 s⁻¹
- Km [1]: 15.3 ± 2.3 µM
- Vmax [1]: 878 ± 33 nm/min/mg

Compound: Nc1ncnc2c1ncn2[C@H]1C[C@H](O)[C@@H](CO)O1 [dAdo, deoxyadenosine]
- Deoxyribonucleoside kinase activity in crude extract of MCF-7 cells [6]: 0.05 ± 0.00 mU/mg
- Deoxyribonucleoside kinase activity in crude extract of DT 40 cells [7]: 0.1 ± 0.01 mU/mg
- Km [1]: 79 µM and 82 µM

Compound: Nc1ccn([C@H]2C[C@H](O)[C@@H](CO)O2)c(=O)n1 [dCyd, deoxycytidine]
- Deoxyribonucleoside kinase activity in crude extract of MCF-7 cells [6]: 0.01 ± 0.00 mU/mg
- Deoxyribonucleoside kinase activity in crude extract of DT 40 cells [7]: 0.09 ± 0.01 mU/mg
- Kcat [1]: 0.30 s⁻¹
- Km [1]: 4.8 µM
- Vmax [1]: 589 ± 34 nm/min/mg

Compound: Nc1nc2c(ncn2[C@H]2C[C@H](O)[C@@H](CO)O2)c(=O)[nH]1 [dGuo, deoxyguanosine]
- Deoxyribonucleoside kinase activity in crude extract of MCF-7 cells [6]: 0.01 ± 0.00 mU/mg
- Km [4]: 7.6 µM
- Km [2, 9]: 100 µM
- Kcat [2]: 0.33 s⁻¹
- Vmax [2]: 600 nm/min/mg
- Deoxyribonucleoside kinase activity in crude extract of DT 40 cells [7]: 0.09 ± 0.00 mU/mg
- Kcat [1]: 0.20 s⁻¹
- Km [1]: 61.8 ± 11.1 µM
- Vmax [1]: 394 ± 37 nm/min/mg

Compound: Cc1cn([C@H]2C[C@H](O)[C@@H](CO)O2)c(=O)[nH]c1=O [dThd, thymidine]
- Deoxyribonucleoside kinase activity in crude extract of MCF-7 cells [6]: 0.07 ± 0.00 mU/mg
- Deoxyribonucleoside kinase activity in crude extract of DT 40 cells [7]: 0.1 ± 0.03 mU/mg

Compound: GgdCK1: Gallus gallus deoxycytidine kinase 1, 257 amino acid residues, SEQ ID No. 2
- dCyd phosphorylation efficiency [8]: ~8 mU
